For orientation: EC50 means the concentration needed to bring the measured effect to its halfway point.

Like-named read-outs stand apart in the source and are kept apart here. Starred links: 1 amine or outer side, 2 acyl side, 3 side chain; linkers in the order of their positions; H or OH if unused. Non-standard residues stand in square brackets, D forms with d. Residues, ends and D or L forms follow the SMILES beside them. Groups on a side chain read outwards from the residue. *: point of attachment. C18 diacid = O=C(O)CCCCCCCCCCCCCCCCC(=O)*; γGlu = O=C(O)[C@H](CCC(=O)[*:2])N[*:1]; Stearoyl = CCCCCCCCCCCCCCCCCC(=O)*; Palmitoyl = CCCCCCCCCCCCCCCC(=O)*; αMeF = C[C@](N)(Cc1ccccc1)C(=O)O; PEG2 = NCCOCCOCCC(=O)O; AEEA = NCCOCCOCC(=O)O; Aib = CC(C)(N)C(=O)O

In assay [1] the target is human glucagon receptor (hGCGR) (Homo sapiens, UniProt P47871). The assay is described as follows: cAMP production (HTRF) in CHO cells expressing hGCGR. In kind it is cell-based. Set-up: expressed in transfected cells. Conditions: cAMP in CHO hGCGR cells, geometric mean, read-out: hGluc-R EC50. The method in brief:
(§1)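 Potency values represent EC50 from 4-parameter logistic curves of HTRF % Delta F signal. Receptor-expressing CHO cells (hGCGR 2×10^5 cells/mL, hGLP-1R 1×10^5 cells/mL) were exposed for 30 min at room temperature before two-step cAMP detection.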
A general note: cAMP levels reflect the balance of adenylyl cyclase and phosphodiesterase activity.

Assay [2] addresses human GLP-1 receptor (hGLP-1R) (Homo sapiens, UniProt P43220). The assay is described as follows: cAMP production (HTRF) in CHO cells expressing hGLP-1R. In kind it is cell-based. Set-up: expressed in transfected cells. Conditions: for % Relative Potency Ratio: % GLP-1R activity relative to GLP-1 / % GlucR activity relative to glucagon; for EC50: Table 7, peptides modified at position 20, cAMP in CHO hGLP-1R cells, geometric mean, read-out: hGLP-1R EC50. The method in brief:
as §1

Assay [3] in a line: Mouse acute food intake study. Type of assay: in vivo. Conditions: male C57Bl/6 mice, s.c., cumulative food intake at 24 hr vs vehicle. Here is the method: Male C57Bl/6 mice obtained from Jackson Laboratories or Charles River at 8-9 weeks of age and were housed one per cage in BioDaq (Research Diets) cages. Mice were placed on Alpha Dri bedding, standard chow diet (Envigo, 2018) and given water pouches. Mice were allowed to acclimate for 1-2 weeks. Body weight was measured to ensure appropriate acclimation. After acclimation, mice were sham dosed a minimum of 2 times prior to initiation of food intake study. On study day, mice were placed in clean cage bottoms, weighed, and fasted for 6-8 hours. Mice were sorted into groups based on average 24-hour food intake data and body weight. 1-2 hours prior to lights out, mice were dosed subcutaneously with one vehicle or test peptide dissolved in an appropriate vehicle at 5 mL/kg. Mice were left undisturbed and allowed access to food and water for 48 hours. Automated food intake was monitored in the BioDaq system was monitored during this time. Discrete food intake data was exported into MS Excel from which cumulative food intake data was generated and analyzed.

The mark [4] stands for this setting: Table 6, peptides modified at position 17.
[5] abbreviates: Table 7, peptides modified at position 20.

Chain of human glucagon receptor (hGCGR) (P47871 26-477): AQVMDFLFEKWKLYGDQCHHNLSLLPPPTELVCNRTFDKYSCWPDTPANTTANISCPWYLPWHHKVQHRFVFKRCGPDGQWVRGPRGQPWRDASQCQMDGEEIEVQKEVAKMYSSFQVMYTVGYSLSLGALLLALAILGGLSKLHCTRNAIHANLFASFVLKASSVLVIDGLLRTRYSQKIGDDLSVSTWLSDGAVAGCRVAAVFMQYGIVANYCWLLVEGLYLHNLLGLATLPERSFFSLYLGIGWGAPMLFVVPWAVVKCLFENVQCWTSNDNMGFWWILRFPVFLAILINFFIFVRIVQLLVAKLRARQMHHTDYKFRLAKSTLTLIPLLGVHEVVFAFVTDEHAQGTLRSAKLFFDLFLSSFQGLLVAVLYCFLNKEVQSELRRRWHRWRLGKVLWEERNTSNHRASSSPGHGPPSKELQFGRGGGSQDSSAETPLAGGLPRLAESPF
Chain of human GLP-1 receptor (hGLP-1R) (P43220 24-463): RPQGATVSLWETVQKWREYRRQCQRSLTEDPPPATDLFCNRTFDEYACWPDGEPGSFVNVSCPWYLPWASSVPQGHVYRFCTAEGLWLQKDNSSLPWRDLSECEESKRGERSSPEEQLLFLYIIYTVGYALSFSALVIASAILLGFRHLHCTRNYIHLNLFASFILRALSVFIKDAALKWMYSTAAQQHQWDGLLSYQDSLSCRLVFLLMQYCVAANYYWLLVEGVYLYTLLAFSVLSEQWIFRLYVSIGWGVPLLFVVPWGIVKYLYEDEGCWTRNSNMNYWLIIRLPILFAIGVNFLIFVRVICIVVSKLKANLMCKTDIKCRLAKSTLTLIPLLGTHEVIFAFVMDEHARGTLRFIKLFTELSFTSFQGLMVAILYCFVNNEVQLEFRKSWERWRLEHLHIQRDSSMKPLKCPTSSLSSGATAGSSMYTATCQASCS

Take `CCCCCCCCCCCCCCCC(=O)N[C@@H](CCC(=O)N[C@@H](CCC(=O)NCCOCCOCCC(=O)NCCOCCOCCC(=O)NCCCC[C@H](NC(=O)[C@H](CO)NC(=O)[C@H](CC(=O)O)NC(=O)[C@H](CC(C)C)NC(=O)[C@](C)(Cc1ccccc1)NC(=O)[C@H](CCCCN)NC(=O)[C@H](CO)NC(=O)[C@@H](NC(=O)[C@H](CC(=O)O)NC(=O)[C@H](CO)NC(=O)[C@@H](NC(=O)[C@](C)(Cc1ccccc1)NC(=O)[C@H](CO)NC(=O)CNC(=O)[C@H](CCC(N)=O)NC(=O)C(C)(C)NC(=O)[C@@H](N)Cc1c[nH]cn1)[C@@H](C)O)C(C)C)C(=O)N[C@@H](C)C(=O)N[C@@H](C)C(=O)N[C@@H](CCC(N)=O)C(=O)N[C@@H](CC(=O)O)C(=O)N[C@@](C)(Cc1ccccc1)C(=O)N[C@H](C(=O)N[C@@H](CCC(N)=O)C(=O)NC(C)(C)C(=O)N[C@H](C(=O)N[C@@H](C)C(=O)N[C@@H](CC(N)=O)C(N)=O)[C@@H](C)CC)C(C)C)C(=O)O)C(=O)O` [Peptide 73] (H-H[Aib]QGS[αMeF]TSDVSK[αMeF]LDSK([PEG2-PEG2-γGlu-γGlu-Palmitoyl])AAQD[αMeF]VQ[Aib]IAN-NH2; N-terminus assumed): in assay [1] (setting [4]), the EC50 is 22 pM. For the same compound, the “% Relative Potency Ratio” value in assay [2] (Table 6) was determined as 157.9. The “24 hr % Vehicle Food Intake” value in assay [3] (dose 10 nmol/kg) is reported as 63.4%.
Taken in the same sequence, the figures for `CCCCCCCCCCCCCCCCCC(=O)N[C@@H](CCC(=O)N[C@@H](CCC(=O)NCCOCCOCCC(=O)NCCOCCOCCC(=O)NCCCC[C@H](NC(=O)[C@H](CO)NC(=O)[C@H](CC(=O)O)NC(=O)[C@H](CC(C)C)NC(=O)C(C)(C)NC(=O)[C@H](CCCCN)NC(=O)[C@H](CO)NC(=O)[C@@H](NC(=O)[C@H](CC(=O)O)NC(=O)[C@H](CO)NC(=O)[C@@H](NC(=O)[C@](C)(Cc1ccccc1)NC(=O)[C@H](CO)NC(=O)CNC(=O)[C@H](CCC(N)=O)NC(=O)[C@H](CO)NC(=O)[C@@H](N)Cc1c[nH]cn1)[C@@H](C)O)C(C)C)C(=O)N[C@@H](C)C(=O)N[C@@H](C)C(=O)N[C@@H](CCC(N)=O)C(=O)N[C@@H](CC(=O)O)C(=O)N[C@@](C)(Cc1ccccc1)C(=O)N[C@H](C(=O)N[C@@H](CCC(N)=O)C(=O)NC(C)(C)C(=O)N[C@@H](CC(C)C)C(=O)N[C@@H](CCC(=O)O)C(=O)N[C@@H](C)C(=O)NCC(=O)NCC(N)=O)C(C)C)C(=O)O)C(=O)O` [Peptide 96] (H-HSQGS[αMeF]TSDVSK[Aib]LDSK([PEG2-PEG2-γGlu-γGlu-Stearoyl])AAQD[αMeF]VQ[Aib]LEAGG-NH2; N-terminus assumed) were 30.1 pM, 69.9 and 51.9%.
Taken in the same sequence, the figures for `CCCCCCCCCCCCCCCCCC(=O)N[C@@H](CCC(=O)N[C@@H](CCC(=O)NCCOCCOCCC(=O)NCCOCCOCCC(=O)NCCCC[C@H](NC(=O)[C@H](CO)NC(=O)[C@H](CC(=O)O)NC(=O)[C@H](CC(C)C)NC(=O)C(C)(C)NC(=O)[C@H](CCCCN)NC(=O)[C@H](CO)NC(=O)[C@@H](NC(=O)[C@H](CC(=O)O)NC(=O)[C@H](CO)NC(=O)[C@@H](NC(=O)[C@](C)(Cc1ccccc1)NC(=O)[C@H](CO)NC(=O)CNC(=O)[C@H](CCC(N)=O)NC(=O)C(C)(C)NC(=O)[C@@H](N)Cc1c[nH]cn1)[C@@H](C)O)C(C)C)C(=O)N[C@@H](CCCNC(=N)N)C(=O)N[C@@H](C)C(=O)N[C@@H](CCC(N)=O)C(=O)N[C@@H](CC(=O)O)C(=O)N[C@@](C)(Cc1ccccc1)C(=O)N[C@H](C(=O)N[C@@H](CCC(N)=O)C(=O)NC(C)(C)C(=O)N[C@H](C(=O)N[C@@H](C)C(=O)N[C@@H](CC(N)=O)C(N)=O)[C@@H](C)CC)C(C)C)C(=O)O)C(=O)O` [Peptide 102] (H-H[Aib]QGS[αMeF]TSDVSK[Aib]LDSK([PEG2-PEG2-γGlu-γGlu-Stearoyl])RAQD[αMeF]VQ[Aib]IAN-NH2; N-terminus assumed) were 26.5 pM, 227.0 and 81.9%.
`CC[C@H](C)[C@H](NC(=O)[C@H](CO)NC(=O)[C@H](CCC(N)=O)NC(=O)[C@@H](NC(=O)[C@H](Cc1ccccc1)NC(=O)[C@H](CC(=O)O)NC(=O)[C@H](CCCCNC(=O)COCCOCCNC(=O)COCCOCCNC(=O)CC[C@H](NC(=O)CCCCCCCCCCCCCCCCC(=O)O)C(=O)O)NC(=O)[C@H](C)NC(=O)C(C)(C)NC(=O)[C@H](CCCNC(=N)N)NC(=O)[C@H](CO)NC(=O)[C@H](CC(=O)O)NC(=O)[C@H](CC(C)C)NC(=O)[C@](C)(Cc1ccccc1)NC(=O)[C@H](CCCCN)NC(=O)[C@H](CO)NC(=O)[C@@H](NC(=O)[C@H](CC(=O)O)NC(=O)[C@H](CO)NC(=O)[C@@H](NC(=O)[C@](C)(Cc1ccccc1)NC(=O)[C@H](CO)NC(=O)CNC(=O)[C@H](Cc1c[nH]cn1)NC(=O)C(C)(C)NC(=O)[C@@H](N)Cc1c[nH]cn1)[C@@H](C)O)C(C)C)C(C)C)C(=O)N[C@@H](C)C(=O)N[C@@H](CC(N)=O)C(=O)N[C@H](C(N)=O)[C@@H](C)O` [Peptide 223] (H-H[Aib]HGS[αMeF]TSDVSK[αMeF]LDSR[Aib]AK([AEEA-AEEA-γGlu-C18 diacid])DFVQSIANT-NH2): the values for the concentration for a half-maximal effect (EC50) in assay [1] (setting [5]) and in assay [2] were 104 pM and 48.8 pM, respectively. In addition, in assay [2] (Table 7), the “% Relative Potency Ratio” value came out at 4.2. The “24 hr % Vehicle Food Intake” value in assay [3] (dose 10 nmol/kg) turned out to be 63.6%.
Taken in the same sequence, the figures for `CC[C@H](C)[C@H](NC(=O)[C@H](Cc1c[nH]c2ccccc12)NC(=O)[C@H](CCC(N)=O)NC(=O)[C@@H](NC(=O)[C@](C)(Cc1ccccc1)NC(=O)[C@H](CC(=O)O)NC(=O)[C@H](CCCCNC(=O)COCCOCCNC(=O)COCCOCCNC(=O)CC[C@H](NC(=O)CC[C@H](NC(=O)CCCCCCCCCCCCCCCCC(=O)O)C(=O)O)C(=O)O)NC(=O)[C@H](C)NC(=O)[C@H](C)NC(=O)[C@H](CCCNC(=N)N)NC(=O)[C@H](CO)NC(=O)[C@H](CC(=O)O)NC(=O)[C@H](CC(C)C)NC(=O)[C@](C)(Cc1ccccc1)NC(=O)[C@H](CCCCN)NC(=O)[C@H](CO)NC(=O)[C@@H](NC(=O)[C@H](CC(=O)O)NC(=O)[C@H](CO)NC(=O)[C@@H](NC(=O)[C@](C)(Cc1ccccc1)NC(=O)[C@H](CO)NC(=O)CNC(=O)[C@H](Cc1c[nH]cn1)NC(=O)C(C)(C)NC(=O)[C@@H](N)Cc1c[nH]cn1)[C@@H](C)O)C(C)C)C(C)C)C(=O)N[C@@H](C)C(=O)N[C@@H](CC(N)=O)C(=O)N[C@H](C(N)=O)[C@@H](C)O` [Peptide 247] (H-H[Aib]HGS[αMeF]TSDVSK[αMeF]LDSRAAK([AEEA-AEEA-γGlu-γGlu-C18 diacid])D[αMeF]VQWIANT-NH2; N-terminus assumed) were 51.1 pM, 84.9 pM, 1.2 and 66.9%.
Take `CCCCCCCCCCCCCCCCCC(=O)N[C@@H](CCC(=O)N[C@@H](CCC(=O)NCCOCCOCC(=O)NCCOCCOCC(=O)NCCCC[C@H](NC(=O)[C@H](C)NC(=O)[C@H](C)NC(=O)[C@H](CCCNC(=N)N)NC(=O)[C@H](CO)NC(=O)[C@H](CC(=O)O)NC(=O)[C@H](CC(C)C)NC(=O)[C@](C)(Cc1ccccc1)NC(=O)[C@H](CCCCN)NC(=O)[C@H](CO)NC(=O)[C@@H](NC(=O)[C@H](CC(=O)O)NC(=O)[C@H](CO)NC(=O)[C@@H](NC(=O)[C@](C)(Cc1ccccc1)NC(=O)[C@H](CO)NC(=O)CNC(=O)[C@H](Cc1c[nH]cn1)NC(=O)C(C)(C)NC(=O)[C@@H](N)Cc1c[nH]cn1)[C@@H](C)O)C(C)C)C(=O)N[C@@H](CC(=O)O)C(=O)N[C@@](C)(Cc1ccccc1)C(=O)N[C@H](C(=O)N[C@@H](CCC(N)=O)C(=O)NC(C)(C)C(=O)N[C@H](C(=O)N[C@@H](C)C(=O)N[C@@H](CC(N)=O)C(=O)N[C@H](C(N)=O)[C@@H](C)O)[C@@H](C)CC)C(C)C)C(=O)O)C(=O)O` [Peptide 257] (H-H[Aib]HGS[αMeF]TSDVSK[αMeF]LDSRAAK([AEEA-AEEA-γGlu-γGlu-Stearoyl])D[αMeF]VQ[Aib]IANT-NH2): the results for the EC50 in assay [1] (setting [5]) and in assay [2] were 1.66 pM and 7.35 pM, respectively. The “% Relative Potency Ratio” value in assay [2] (Table 7) was found to be 0.4. Also, the “24 hr % Vehicle Food Intake” value in assay [3] (dose 3 nmol/kg) was found to be 94.7%; in assay [3] (dose 10 nmol/kg) it was 96.5%.

The values above are taken from patent US20250353891A1 (MEDIMMUNE LIMITED, priority 2022, published 2025).
